In patent US3979508A, “Compositions and methods therewith for penicillin hypersensitivity detection” (Kremers-Urban Company, priority 1975, dated 1976):
Values joined by “and” are separate entries in the source; they are usually repeats but may differ in a detail not shown here. Equal entries are not always repeated.

Key:
[1] = test system: penicillin hypersensitivity (patients); assay: Comparison of skin tests with penicilloyl-poly-L-lysine and penicillin G (Table III); assay type: in vivo, human; conditions: 1163 tested
Procedure: One of the uses for the conjugates of this invention is in skin testing for penicillin hypersensitivity. The conjugated compositions are prepared for skin testing by first dissolving the composition in buffered isotonic solutions, having a pH in the range from 7 to 8. For example, the conjugates prepared above may be diluted with aqueous solutions 0.15 M NaCl in 0.01 M phosphate, pH 7.6. In addition, other physiological salt solutions may be used.
Intradermal injections may be made of the foregoing solutions with a 26 guage needle, the volume injected may be generally about 0.01 to 0.03 cc. Alternatively, the conjugate may be applied by the scratch test technique. The development of a wheal at the injection site after about 20 minutes indicates a positive reaction, and penicillin hypersensitivity.
Penicillin hypersensitivity tests carried out with the conjugate compositions of this invention reflect the numerous advantages of penicillin hypersensitivity determinations made with such compositions. […] In Table II the distribution of skin reactions is shown by history of penicillin therapy and hypersensitivity. […] (See column 2, for example, showing the percentages of patients tested who had […] skin test.)

[2] = test system: penicillin hypersensitivity (patients); assay: Clinical evaluation by 26 investigators: scratch/intradermal skin tests with PPL and Penicillin G (Tables IV-VII, IX-XI); assay type: in vivo, human; conditions: for TOTAL (+) No. / TOTAL (+) Percent of total positive: skin reactive penicillin allergy patients
Procedure: Twenty-six clinical investigators contributed a total of 1160 cases to the evaluation. Patients were tested according to a protocol as follows:
1. All patients being subjected to allergy investigation were to be tested for penicillin hypersensitivity. Two preparations were to be used. These are:
2. Penicillin G (Benzyl Penicillin) in a concentration of 10,000 units per cc.
For maximum safety, it was recommended that the tests first be done by the scratch technique. Intradermal tests were then to be done on those showing negative scratch tests. In cases where the penicillin sensitivity was suspected to be of a violent character, more dilute reagents were recommended at the discretion of the individual investigator.
A uniform technique was recommended for the performance of the intradermal tests. Only a minimal amount of testing reagent was to be injected so as to make a barely discernible intradermal bleb. The amount necessary for this injection is about 0.01 to 0.03 cc. It was recognized that the intrepretation of the test results is an important matter. The reactions were to be recorded in terms of (1) the time required for the appearance of a reaction, (2) the size of erythema and (3) the size of whealing. These were to be recorded as actual measurements. Some objective measurement of dermographism was also to be recorded.
It was also contemplated that all patients who were to be treated with penicillin be tested as recommended above, even though they had previously received penicillin with impunity.
A comprehensive clinical history was takan on each patient with particular regard to previous penicillin therapy, and reaction.
In order to properly analyze the data on such a large number of patients, a data processing system was utilized.
Table IV summarizes the skin test results on all patients, without regard to other specific factors. […] It will also be noted that a significant number of patients reacted only to PPL, and another group only to Pen G. Therefore, to detect the maximum number of reactors, both test reagents would be required. A technical problem was classification of the ambiguous or borderline reactors, particularly those showing only erythema. Attempts to correlate the appearance of the erythematous flare without wheal formation with a history of penicillin hypersensitivity were unsuccessful. In some instances, however, erythema without wheal did appear to be associated with hypersensitivity to the antibiotic. The time of development of erythema without wheal varied widely from a few minutes to more than 7 days which also made its importance questionable. as a diagnostic sign. For these reasons erythema alone responses were counted with the negatives. In some instances, however, data will be presented in which erythema without wheal are counted as positive responses (figures appearing in parentheses).

[3] = Group I (675 patients): penicillin Rx, no hypersensitivity, erythema only counted as negative
[4] = Group I (675 patients): penicillin Rx, no hypersensitivity, parentheses: erythema only (ambiguous) counted as positive
[5] = Group II (352 patients): penicillin Rx & hypersensitive, erythema only counted as negative
[6] = Group II (352 patients): penicillin Rx & hypersensitive, parentheses: erythema only (ambiguous) counted as positive
[7] = Group III (70 patients): no penicillin Rx in past, erythema only counted as negative
[8] = Group III (70 patients): no penicillin Rx in past, parentheses: erythema only (ambiguous) counted as positive
[9] = Group IV (56 patients): no data, erythema only counted as negative
[10] = Group IV (56 patients): no data, parentheses: erythema only (ambiguous) counted as positive
[11] = TOTALS (1153 patients), erythema only counted as negative
[12] = TOTALS (1153 patients), parentheses: erythema only (ambiguous) counted as positive
[13] = TOTALS, all patients (1153 tested), erythema only counted as negative
[14] = TOTALS, all patients (1153 tested), parentheses: erythema only (ambiguous) counted as positive
[15] = history of therapy: Multi Courses (177 tested)
[16] = history of therapy: One Course (249 tested)
[17] = history of therapy: One Dose (152 tested)
[18] = history of therapy: TOTALS (578 tested)
[19] = reason for testing: "Penicillin" (240 tested)
[20] = reason for testing: Other Substances (463 tested)
[21] = reaction between 30 minutes and 24 hours post therapy, erythema only counted as negative
[22] = reaction between 30 minutes and 24 hours post therapy, parentheses: erythema only (ambiguous) counted as positive
[23] = reaction more than 24 hours post therapy, erythema only counted as negative
[24] = reaction more than 24 hours post therapy, parentheses: erythema only (ambiguous) counted as positive
[25] = reaction within 30 minutes post therapy, erythema only counted as negative
[26] = reaction within 30 minutes post therapy, parentheses: erythema only (ambiguous) counted as positive
[27] = type of hypersensitivity reaction: Skin (309 tested)
[28] = type of hypersensitivity reaction: Visceral (43 tested)

`CC1(C)S[C@@H]2[C@H](NC(=O)Cc3ccccc3)C(=O)N2[C@H]1C(=O)O` [PG, Benzyl Penicillin, reference compound] was tested, and the “POSITIVE SKIN TESTS %” value [1] was 14.3%, the “Positive Skin Tests, Number of Patients” value [1] was 166 and the “Skin Test (+) No.” value [2, 3] was 24. For the same compound, the “Skin Test (+) Percent” value [2, 3] was 3.6%, the “Skin Test (-) No.” value [2, 3] was 651 and the “Skin Test (-) Percent” value [2, 3] was 96.4%. For the same compound, the “Skin Test (+) No.” value [2, 4] was 56, the “Skin Test (+) Percent” value [2, 4] was 8.3% and the “Skin Test (-) No.” value [2, 4] was 619. For the same compound, the “Skin Test (-) Percent” value [2, 4] was 91.7%, the “Skin Test (+) No.” value [2, 5] was 47 and the “Skin Test (+) Percent” value [2, 5] was 13.4%. For the same compound, the “Skin Test (-) No.” value [2, 5] was 305, the “Skin Test (-) Percent” value [2, 5] was 86.6% and the “Skin Test (+) No.” value [2, 6] was 65. The “Skin Test (+) Percent” value [2, 6] was 18.5%, the “Skin Test (-) No.” value [2, 6] was 287 and the “Skin Test (-) Percent” value [2, 6] was 81.5%. The “Skin Test (-) No.” value [2, 7] was 70, the “Skin Test (-) Percent” value [2, 7] was 100.0% and the “Skin Test (+) No.” value [2, 8] was 5. For the same compound, the “Skin Test (+) Percent” value [2, 8] was 7.1%, the “Skin Test (-) No.” value [2, 8] was 65 and the “Skin Test (-) Percent” value [2, 8] was 92.9%. The “Skin Test (+) No.” value [2, 9] was 1, the “Skin Test (+) Percent” value [2, 9] was 1.8% and the “Skin Test (-) No.” value [2, 9] was 55. The “Skin Test (-) Percent” value [2, 9] was 98.2%, the “Skin Test (+) No.” value [2, 10] was 3 and the “Skin Test (+) Percent” value [2, 10] was 5.3%. For the same compound, the “Skin Test (-) No.” value [2, 10] was 53, the “Skin Test (-) Percent” value [2, 10] was 94.6% and the “SKIN TEST RESPONSE No.” value ([2]; No reactions (675 tested)) was 24. For the same compound, the “SKIN TEST RESPONSE Percent” value ([2]; No reactions (675 tested)) was 3.6%, the “Skin Test (-) No.” value [2, 11] was 1081 and the “Skin Test (-) Percent” value [2, 11] was 93.8%. For the same compound, the “Skin Test (-) No.” value [2, 12] was 1024, the “Skin Test (-) Percent” value [2, 12] was 88.8% and the “Skin Test (+) No.” value [2, 13] was 72. For the same compound, the “Skin Test (+) Percent” value [2, 13] was 6.2% and 6.3%, the “Skin Test (+) No.” value [2, 14] was 129 and the “Skin Test (+) Percent” value [2, 14] was 11.2%. The “positive skin tests, patients positive/patients in group” value ([2]; delayed (after 24 hours) group) was 17/144, the “positive skin tests, percent of group” value ([2]; delayed (after 24 hours) group, 144 patients) was 11.8% and the “Skin Reactions PPL- / PEN G- No.” value [2, 15] was 10. The “Skin Reactions PPL- / PEN G- Percent” value [2, 15] was 5.6%, the “Skin Reactions PPL- / PEN G- No.” value [2, 16] was 8 and the “Skin Reactions PPL- / PEN G- Percent” value [2, 16] was 3.2%. The “Skin Reactions PPL- / PEN G- No.” value [2, 17] was 17, the “Skin Reactions PPL- / PEN G- Percent” value [2, 17] was 11.2% and the “Skin Reactions PPL- / PEN G- No.” value [2, 18] was 35. The “Skin Reactions PPL- / PEN G- Percent” value [2, 18] was 6.1%, the “positive skin tests, patients positive/patients in group” value ([2]; immediate reacting group (within 30 minutes)) was 17/56 and the “positive skin tests, percent of group” value ([2]; immediate reacting group (within 30 minutes), 56 patients) was 30.4%. The “percent of skin-test positive patients that would be missed if only this reagent were used as skin test antigen” value ([2]; immediate reactor group) was 45%, the “Skin Test (+) No.” value [2, 19] was 24 and the “Skin Test (+) Percent” value [2, 19] was 10.0%. For the same compound, the “Skin Test (+) No.” value [2, 20] was 9, the “Skin Test (+) Percent” value [2, 20] was 1.9% and the “safety of skin testing” value ([2]; scratch and intradermal skin testing of patients) was “safe”. The “TOTAL (+) No.” value [2, 21] was 17, the “TOTAL (+) Percent of total positive” value [2, 21] was 65.4% and the “TOTAL (+) No.” value [2, 22] was 21. For the same compound, the “TOTAL (+) Percent of total positive” value [2, 22] was 67.7%, the “TOTAL (+) No.” value [2, 23] was 17 and the “TOTAL (+) Percent of total positive” value [2, 23] was 51.5%. The “TOTAL (+) Percent of total positive” value ([2]; reaction more than 24 hours post therapy, erythema only counted as negative, listed as Penicillin G) was ≤ 51.5%, the “TOTAL (+) No.” value [2, 24] was 22 and the “TOTAL (+) Percent of total positive” value [2, 24] was 50.0%. The “TOTAL (+) No.” value [2, 25] was 17, the “TOTAL (+) Percent of total positive” value [2, 25] was 54.8% and the “TOTAL (+) Percent of total positive” value ([2]; reaction within 30 minutes post therapy, erythema only counted as negative, listed as Pen G) was 55%. For the same compound, the “TOTAL (+) Percent of total positive” value ([2]; reaction within 30 minutes post therapy, erythema only counted as negative, listed as Penicillin G) was 54.8%, the “TOTAL (+) No.” value [2, 26] was 17 and the “TOTAL (+) Percent of total positive” value [2, 26] was 47.2%. For the same compound, the “SKIN TEST RESPONSE No.” value [2, 27] was 39, the “SKIN TEST RESPONSE Percent” value [2, 27] was 12.6% and the “SKIN TEST RESPONSE No.” value [2, 28] was 14. For the same compound, the “SKIN TEST RESPONSE Percent” value [2, 28] was 32.6%.
